This is an account of results in PubChem BioAssay (NCI).

Where “and” joins values, the source holds several entries; their conditions need not be identical. Equal entries are not always repeated.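 Following 48 hours of exposure in 96-well plates, responses at five concentrations were used to interpolate endpoints linearly. GI50 = concentration required for 50% inhibition of growth. At the TGI there is no net growth.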

Among the test systems are HCT-15 colon; KM12 colon; HCT-116 colon; HT29 colon; UO-31 renal; A498 renal; CCRF-CEM leukemia; SF-268 CNS; ACHN renal; EKVX NSCLC.
What all share (assay): NCI-60 cell line screen, 48 h

On to `C[Si](C)(C)/C=C\CCO`, for which the TGI in the assay on HCT-15 colon, with KM12 colon, in the assay on HCT-116 colon, in the assay with HT29 colon, in the assay with UO-31 renal and in the assay with A498 renal was more than 100 µM throughout. Besides, the TGI in the assay with CCRF-CEM leukemia, in the assay with SF-268 CNS, with ACHN renal and with EKVX NSCLC was more than 100 µM in each case.

Regarding `CC(C)=CCC(OC(=O)C=C(C)C)C1=CC(=O)c2c(O)ccc(O)c2C1=O` (centres undefined), the GI50 was 1.07 µM in the assay on HCT-15 colon; 6.61 µM in the assay with KM12 colon; 0.63 µM in the assay with HCT-116 colon; 2.49 µM in the assay with HT29 colon; 0.993 µM in the assay on UO-31 renal; 20 µM in the assay with A498 renal. The GI50 in the assay on CCRF-CEM leukemia is 0.0241 µM; in the assay with SF-268 CNS, 3.35 µM; in the assay with ACHN renal it was 0.605 µM; in the assay on EKVX NSCLC, 2.28 µM. Also, the TGI is 3.22 µM and 1.13 µM with HCT-15 colon; 23.9 µM and 6.52 µM in the assay with KM12 colon; 2.68 µM and 1.04 µM in the assay on HCT-116 colon; 8.41 µM and 4.43 µM in the assay on HT29 colon; 5.49 µM and 7.74 µM in the assay on UO-31 renal; 39 µM and 5.39 µM in the assay on A498 renal. The TGI with SF-268 CNS was 9.83 µM and 4.06 µM; in the assay on ACHN renal it was 2.53 µM; in the assay with EKVX NSCLC it was 6.2 µM and 2.2 µM.

With `Cc1nc2c(n1C)C(=O)c1ccccc1C2=O`, the GI50 was 53.6 µM in the assay on HCT-15 colon; 59.7 µM with KM12 colon; 40 µM in the assay with HCT-116 colon; 37.2 µM in the assay on HT29 colon; 77.6 µM in the assay with UO-31 renal; more than 100 µM with A498 renal. Moreover, the GI50 was 59.3 µM with CCRF-CEM leukemia, more than 100 µM in the assay on SF-268 CNS, more than 100 µM with ACHN renal and 60.4 µM in the assay with EKVX NSCLC. Besides, the TGI in the assay on HCT-15 colon, with KM12 colon, in the assay with HCT-116 colon, in the assay with HT29 colon, with UO-31 renal and with A498 renal was more than 100 µM throughout. The TGI with CCRF-CEM leukemia, in the assay with SF-268 CNS, with ACHN renal and with EKVX NSCLC was more than 100 µM throughout.

With `C=C1CCC2(C#N)[C@H]3[C@H](CC[C@@H]2C)[C@@H](C)C[C@@H](CC(C)(C)NC(=O)CN2CCC2=O)[C@H]13` (some centres undefined), the GI50 with HCT-15 colon was 3.68 µM; in the assay with KM12 colon, 3.36 µM; in the assay with HCT-116 colon it was 3.43 µM; in the assay with HT29 colon it was 10.5 µM; in the assay on UO-31 renal, 10.2 µM; in the assay with A498 renal, 9.03 µM. Moreover, the GI50 in the assay on CCRF-CEM leukemia was 12.8 µM; with SF-268 CNS, 14.2 µM; with ACHN renal, 11.3 µM; in the assay on EKVX NSCLC it was 6.42 µM. For the same compound, the TGI with HCT-15 colon was 26.8 µM; with KM12 colon, 15 µM; in the assay on HCT-116 colon it was 16.2 µM; in the assay on HT29 colon, 24.8 µM; in the assay with UO-31 renal, 77.1 µM; in the assay with A498 renal, 53.1 µM. Besides, the TGI in the assay with CCRF-CEM leukemia is 80.3 µM; in the assay with SF-268 CNS, 42.3 µM; in the assay with ACHN renal it was 51.4 µM; in the assay on EKVX NSCLC it was more than 100 µM.

Turning to `O=S(=O)(NCn1ccc2ccccc21)c1ccccc1`, the TGI with HCT-15 colon was more than 100 µM; in the assay on KM12 colon, more than 100 µM; in the assay on HCT-116 colon, more than 100 µM; in the assay with HT29 colon, more than 57.2 µM; in the assay with UO-31 renal, more than 100 µM; in the assay on A498 renal it was more than 100 µM. Besides, the TGI in the assay with CCRF-CEM leukemia, with SF-268 CNS, in the assay with ACHN renal and in the assay with EKVX NSCLC was more than 100 µM throughout.

Consider `CC1=Nc2ccccc2/C1=C\c1c(C)[nH]c2ccccc12`, for which the TGI in the assay on HCT-15 colon came out at 31.5 µM; with KM12 colon it was 26 µM; with HCT-116 colon it was 24.2 µM; with HT29 colon, 25.4 µM; in the assay on UO-31 renal, 27.5 µM; in the assay on A498 renal, 38 µM. For the same compound, the TGI was more than 100 µM with CCRF-CEM leukemia, 28.6 µM in the assay with SF-268 CNS, 29.5 µM in the assay with ACHN renal and 29.7 µM with EKVX NSCLC.

On to `COc1cc(C)c(C2NC(=O)c3ccccc3N2)cc1C` (centres undefined), for which the TGI was 10 µM in the assay on HCT-15 colon; more than 100 µM in the assay on KM12 colon; 43.1 µM with HCT-116 colon; 13.6 µM in the assay on HT29 colon; more than 100 µM in the assay with UO-31 renal; 4.77 µM with A498 renal. Moreover, the TGI in the assay on CCRF-CEM leukemia was 18.1 µM; in the assay on SF-268 CNS, more than 100 µM; with ACHN renal, more than 95.4 µM; in the assay with EKVX NSCLC it was more than 100 µM.

Turning to `Cc1c2c(c(C)c3c4c(oc13)CCCC4)C=NCC2`, the TGI in the assay with HCT-15 colon is 34.4 µM; with KM12 colon, 33 µM; in the assay on HCT-116 colon it was 35.9 µM; in the assay on HT29 colon, 29 µM; with UO-31 renal, 25.8 µM; in the assay with A498 renal, 31.9 µM. For the same compound, the TGI in the assay on CCRF-CEM leukemia was found to be 29.4 µM; with SF-268 CNS it was 41.2 µM; with ACHN renal it was 37.7 µM; in the assay on EKVX NSCLC, 32 µM.
